Test results reported in US9695155B2, “Herbicidal substituted pyrimidinyloxy benzene compounds” (E. I. DU PONT DE NEMOURS AND COMPANY, priority 2013, dated 2017).

Assays:
kochia [1] = assay: Test A preemergence; format: in vivo, Kochia scoparia; settings: for Kochia plant response rating: 500 g ai/ha
Outline: (§1)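 Visual 0–100 rating (100 = complete control) taken about 10 d post-treatment relative to untreated checks. Preemergence: directed soil spray on sown loam/sand pots. Postemergence: seedlings 2–10 cm, 1–2 leaf. Non-phytotoxic solvent formulation with surfactant.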

kochia [2] = assay: Test A postemergence; format: in vivo, Kochia scoparia
Outline: as §1

ragweed [3] = assay: Test A postemergence; format: in vivo, Ambrosia elatior
Outline: as §1

blackgrass = assay: Test C preemergence; format: in vivo, Alopecurus myosuroides; settings: for Blackgrass plant response rating: preemergence; for Plant response rating, Blackgrass: Preemergence, scale 0 to 100, 0 no effect, 100 complete control
Outline: (§2)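 Greenhouse herbicide screen. Pre: seeded loam/sand, sprayed at planting. Post: 1–4 leaf plants (2–18 cm) in peat-based mix. Formulation: solvent mixture + surfactant, non-phytotoxic. Readout: visual % control vs untreated, 13–15 d; dash = not tested.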

Italian ryegrass = assay: Test C preemergence; format: in vivo, Lolium multiflorum; settings: for Ryegrass, Italian plant response rating: preemergence; for Plant response rating, Ryegrass, Italian: Preemergence, scale 0 to 100, 0 no effect, 100 complete control
Outline: as §2

wheat, winter = assay: Test C preemergence; format: in vivo, Triticum aestivum; settings: for Wheat plant response rating: preemergence; for Plant response rating, Wheat: Preemergence, scale 0 to 100, 0 no effect, 100 complete control
Outline: as §2

galium = assay: Test C preemergence; format: in vivo, Galium aparine; settings: for Galium plant response rating: preemergence; for Plant response rating, Galium: Preemergence, scale 0 to 100, 0 no effect, 100 complete control
Outline: as §2

corn = assay: Test C preemergence; format: in vivo, Zea mays; settings: for Corn plant response rating: preemergence; for Plant response rating, Corn: Preemergence, scale 0 to 100, 0 no effect, 100 complete control
Outline: as §2

giant foxtail = assay: Test C preemergence; format: in vivo, Setaria faberii; settings: for Foxtail, Giant plant response rating: preemergence; for Plant response rating, Foxtail, Giant: Preemergence, scale 0 to 100, 0 no effect, 100 complete control
Outline: as §2

johnsongrass = assay: Test C preemergence; format: in vivo, Sorghum halepense; settings: for Johnsongrass plant response rating: preemergence; for Plant response rating, Johnsongrass: Preemergence, scale 0 to 100, 0 no effect, 100 complete control
Outline: as §2

lambsquarters = assay: Test C preemergence; format: in vivo, Chenopodium album; settings: for Lambsquarters plant response rating: preemergence; for Plant response rating, Lambsquarters: Preemergence, scale 0 to 100, 0 no effect, 100 complete control
Outline: as §2

morningglory = assay: Test C preemergence; format: in vivo, Ipomoea coccinea; settings: for Morningglory plant response rating: preemergence; for Plant response rating, Morningglory: Preemergence, scale 0 to 100, 0 no effect, 100 complete control
Outline: as §2

ragweed [4] = assay: Test C preemergence; format: in vivo, Ambrosia elatior; settings: for Ragweed plant response rating: preemergence; for Plant response rating, Ragweed: Preemergence, scale 0 to 100, 0 no effect, 100 complete control
Outline: as §2

soybean = assay: Test C preemergence; format: in vivo, Glycine max; settings: for Soybean plant response rating: preemergence; for Plant response rating, Soybean: Preemergence, scale 0 to 100, 0 no effect, 100 complete control
Outline: as §2

barnyardgrass = assay: Test C preemergence; format: in vivo, Echinochloa crus-galli; settings: for Barnyardgrass plant response rating: preemergence; for Plant response rating, Barnyardgrass: Preemergence, scale 0 to 100, 0 no effect, 100 complete control
Outline: as §2

oilseed rape = assay: Test C preemergence; format: in vivo, Brassica napus; settings: for Oilseed Rape plant response rating: preemergence; for Plant response rating, Oilseed Rape: Preemergence, scale 0 to 100, 0 no effect, 100 complete control
Outline: as §2

velvetleaf = assay: Test C preemergence; format: in vivo, Abutilon theophrasti; settings: for Velvetleaf plant response rating: preemergence; for Plant response rating, Velvetleaf: Preemergence, scale 0 to 100, 0 no effect, 100 complete control
Outline: as §2

[5] = 125 g ai/ha, 0 to 100 scale where 0 is no effect and 100 is complete control
[6] = 500 g ai/ha, 0 to 100 scale where 0 is no effect and 100 is complete control
[7] = 16 g ai/ha, scale 0 to 100 (0 no effect, 100 complete control)
[8] = 62 g ai/ha, scale 0 (no effect) to 100 (complete control)
[9] = 125 g ai/ha, scale 0 (no effect) to 100 (complete control)
[10] = 125 g ai/ha, 0 to 100 scale, 0 no effect, 100 complete control

Cc1cnc(Oc2cccc(C#N)c2-n2cc(C#N)cn2)nc1 [Compound 90]
Plant response rating, Kochia (kochia [1]; [5]): 100 | Kochia plant response rating (kochia [1]; 0 to 100 scale, 0 no effect, 100 complete control, approx. 10 days): 100 | Plant response rating, Kochia (kochia [2]; [5]): 90 | Plant response rating, Kochia (kochia [2]; [6]): 100 | Plant response rating, Ragweed (ragweed [3]; [5]): 60 | Plant response rating, Ragweed (ragweed [3]; [6]): 80 | Blackgrass plant response rating (blackgrass; [7]): 5 | Blackgrass plant response rating (blackgrass; [8]): 30 | Blackgrass plant response rating (blackgrass; [9]): 85 | Plant response rating, Blackgrass (blackgrass; 31 g ai/ha): 5 | Ryegrass, Italian plant response rating (Italian ryegrass; [7]): 0 | Ryegrass, Italian plant response rating (Italian ryegrass; [8]): 0 | Ryegrass, Italian plant response rating (Italian ryegrass; [9]): 50 | Plant response rating, Ryegrass, Italian (Italian ryegrass; 31 g ai/ha): 0 | Wheat plant response rating (wheat, winter; [7]): 0 | Wheat plant response rating (wheat, winter; [8]): 0 | Wheat plant response rating (wheat, winter; [9]): 0 | Plant response rating, Wheat (wheat, winter; 31 g ai/ha): 0 | Galium plant response rating (galium; [7]): 5 | Galium plant response rating (galium; [8]): 100 | Galium plant response rating (galium; [9]): 98 | Plant response rating, Galium (galium; 31 g ai/ha): 5 | Corn plant response rating (corn; [7]): 0 | Corn plant response rating (corn; [8]): 10 | Corn plant response rating (corn; [9]): 45 | Plant response rating, Corn (corn; 31 g ai/ha): 0 | Foxtail, Giant plant response rating (giant foxtail; [7]): 5 | Foxtail, Giant plant response rating (giant foxtail; [8]): 75 | Foxtail, Giant plant response rating (giant foxtail; [9]): 100 | Plant response rating, Foxtail, Giant (giant foxtail; 31 g ai/ha): 45 | Johnsongrass plant response rating (johnsongrass; [7]): 5 | Johnsongrass plant response rating (johnsongrass; [8]): 20 | Johnsongrass plant response rating (johnsongrass; [9]): 80 | Plant response rating, Johnsongrass (johnsongrass; 31 g ai/ha): 10 | Lambsquarters plant response rating (lambsquarters; [7]): 100 | Lambsquarters plant response rating (lambsquarters; [8]): 100 | Lambsquarters plant response rating (lambsquarters; [9]): 100 | Plant response rating, Lambsquarters (lambsquarters; 31 g ai/ha): 98 | Morningglory plant response rating (morningglory; [7]): 0 | Morningglory plant response rating (morningglory; [8]): 55 | Morningglory plant response rating (morningglory; [9]): 100 | Plant response rating, Morningglory (morningglory; 31 g ai/ha): 20 | Ragweed plant response rating (ragweed [4]; [7]): 10 | Ragweed plant response rating (ragweed [4]; [8]): 100 | Ragweed plant response rating (ragweed [4]; [9]): 95 | Plant response rating, Ragweed (ragweed [4]; 31 g ai/ha): 60 | Soybean plant response rating (soybean; [7]): 25 | Soybean plant response rating (soybean; [8]): 65 | Soybean plant response rating (soybean; [9]): 95 | Plant response rating, Soybean (soybean; 31 g ai/ha): 35 | Barnyardgrass plant response rating (barnyardgrass; [7]): 0 | Barnyardgrass plant response rating (barnyardgrass; [8]): 75 | Barnyardgrass plant response rating (barnyardgrass; [9]): 85 | Plant response rating, Barnyardgrass (barnyardgrass; 31 g ai/ha): 5 | Oilseed Rape plant response rating (oilseed rape; [7]): 60 | Oilseed Rape plant response rating (oilseed rape; [8]): 98 | Oilseed Rape plant response rating (oilseed rape; [9]): 100 | Plant response rating, Oilseed Rape (oilseed rape; 31 g ai/ha): 80 | Velvetleaf plant response rating (velvetleaf; [7]): 35 | Velvetleaf plant response rating (velvetleaf; [8]): 98 | Velvetleaf plant response rating (velvetleaf; [9]): 100 | Plant response rating, Velvetleaf (velvetleaf; 31 g ai/ha): 65

N#Cc1cnn(-c2c(Oc3ncc(F)cn3)cccc2C(F)F)c1 [Compound 240]
Kochia plant response rating (0 to 100 scale) (kochia [1]; 125 g ai/ha): 100 | Kochia plant response rating (kochia [1]; 0 to 100 scale where 0 is no effect and 100 is complete control): 100 | Plant response rating, Kochia (kochia [2]; [10]): 100 | Plant response rating, Kochia (kochia [2]; [6]): 60 | Plant response rating, Ragweed (ragweed [3]; [10]): 100 | Plant response rating, Ragweed (ragweed [3]; [6]): 100 | Blackgrass plant response rating (blackgrass; [7]): 0 | Blackgrass plant response rating (blackgrass; [9]): 95 | Plant response rating, Blackgrass (blackgrass; 62 g ai/ha): 95 | Ryegrass, Italian plant response rating (Italian ryegrass; [7]): 0 | Ryegrass, Italian plant response rating (Italian ryegrass; [9]): 50 | Plant response rating, Ryegrass, Italian (Italian ryegrass; 62 g ai/ha): 0 | Wheat plant response rating (wheat, winter; [7]): 0 | Wheat plant response rating (wheat, winter; [9]): 5 | Plant response rating, Wheat (wheat, winter; 62 g ai/ha): 0 | Galium plant response rating (galium; [7]): 5 | Galium plant response rating (galium; [9]): 100 | Plant response rating, Galium (galium; 62 g ai/ha): 100 | Corn plant response rating (corn; [7]): 5 | Corn plant response rating (corn; [9]): 35 | Plant response rating, Corn (corn; 62 g ai/ha): 5 | Foxtail, Giant plant response rating (giant foxtail; [7]): 10 | Foxtail, Giant plant response rating (giant foxtail; [9]): 100 | Plant response rating, Foxtail, Giant (giant foxtail; 62 g ai/ha): 100 | Johnsongrass plant response rating (johnsongrass; [7]): 5 | Johnsongrass plant response rating (johnsongrass; [9]): 45 | Plant response rating, Johnsongrass (johnsongrass; 62 g ai/ha): 10 | Lambsquarters plant response rating (lambsquarters; [7]): 70 | Lambsquarters plant response rating (lambsquarters; [9]): 100 | Plant response rating, Lambsquarters (lambsquarters; 62 g ai/ha): 100 | Morningglory plant response rating (morningglory; [7]): 15 | Morningglory plant response rating (morningglory; [9]): 75 | Plant response rating, Morningglory (morningglory; 62 g ai/ha): 75 | Ragweed plant response rating (ragweed [4]; [7]): 10 | Ragweed plant response rating (ragweed [4]; [9]): 80 | Plant response rating, Ragweed (ragweed [4]; 62 g ai/ha): 100 | Soybean plant response rating (soybean; [7]): 40 | Soybean plant response rating (soybean; [9]): 98 | Plant response rating, Soybean (soybean; 62 g ai/ha): 85 | Barnyardgrass plant response rating (barnyardgrass; [7]): 5 | Barnyardgrass plant response rating (barnyardgrass; [9]): 100 | Plant response rating, Barnyardgrass (barnyardgrass; 62 g ai/ha): 60 | Oilseed Rape plant response rating (oilseed rape; [7]): 70 | Oilseed Rape plant response rating (oilseed rape; [9]): 100 | Plant response rating, Oilseed Rape (oilseed rape; 62 g ai/ha): 100 | Velvetleaf plant response rating (velvetleaf; [7]): 25 | Velvetleaf plant response rating (velvetleaf; [9]): 85 | Plant response rating, Velvetleaf (velvetleaf; 62 g ai/ha): 80
